We go through seven compounds from ChEMBL document CHEMBL1201862, “PubChem BioAssay data set” (2004).

Among the test systems are NCI-H522; NCI/ADR-RES; HCC 2998; KM12; SN12C; U-251; OVCAR-5; CAKI-1; SNB-75; RXF 393; TK-10; HT-29; UACC-257; SR; COLO 205; MOLT-4; CCRF-CEM; ACHN; OVCAR-4; SF-539.
What all share (assay): NCI-60 cell line screen, 48 h

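Growth conditions: 96-well plates. Treatment: test compound, 48 hours, 5 concentrations. Analysis: linear interpolation between bracketing concentrations; unreached endpoints set to highest concentration. Here, GI50 denotes the concentration required for 50% inhibition of growth.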 Calls of active or inactive are those of the source. Cut-off read from the data, not from the text of the source: active = GI50 up to about 1.1 µM and inactive = higher. Bounds are passed on as bounds.

`CNC1(c2cc3ccccc3s2)CCCCC1`: the GI50 is 12.7 µM (inactive) in the assay with NCI-H522; 33.3 µM (inactive) in the assay with NCI/ADR-RES; 14.9 µM (inactive) with HCC 2998; 17.9 µM (inactive) in the assay on KM12; 38.1 µM (inactive) in the assay on SN12C; 17.8 µM (inactive) in the assay with U-251. Also, the GI50 in the assay with OVCAR-5 was 20.5 µM (inactive); with CAKI-1, 42.1 µM (inactive); in the assay on SNB-75, 21.5 µM (inactive); with RXF 393 it was 23.4 µM (inactive); in the assay with TK-10 it was 44.2 µM (inactive); in the assay on HT-29, 14.8 µM (inactive). The GI50 was 18.2 µM (inactive) in the assay with UACC-257; 25 µM (inactive) with SR; 18.9 µM (inactive) in the assay on COLO 205; 42.2 µM (inactive) in the assay with MOLT-4; < 0.01 µM (active) in the assay with CCRF-CEM; 42.6 µM (inactive) in the assay with ACHN. Also, the results for the GI50 with OVCAR-4 and in the assay on SF-539 were 27.7 µM (inactive) and 20.4 µM (inactive), respectively.

With `O=C1OC(C2Cc3ccc4ccccc4c3C2=O)c2ccccc21` (centres undefined), the GI50 in the assay with NCI-H522 was 36.9 µM (inactive); with NCI/ADR-RES, 49.2 µM (inactive); in the assay with HCC 2998 it was 55.5 µM (inactive); with KM12, 28.3 µM (inactive); in the assay with SN12C, 93.5 µM (inactive); with U-251, 32.7 µM (inactive). Also, the GI50 in the assay with OVCAR-5 was > 100 µM (inactive); in the assay with CAKI-1 it was 61.9 µM (inactive); in the assay on SNB-75, 32.3 µM (inactive); in the assay on RXF 393 it was 17.4 µM (inactive); in the assay on TK-10, 60 µM (inactive); in the assay with UACC-257 it was 70.8 µM (inactive). Further, the GI50 was 35.2 µM (inactive) with SR; > 100 µM (inactive) with COLO 205; 31.4 µM (inactive) in the assay on MOLT-4; 31 µM (inactive) in the assay on CCRF-CEM; 53.1 µM (inactive) in the assay with ACHN; 24.4 µM (inactive) in the assay with OVCAR-4. Besides, the GI50 in the assay on SF-539 was 21.6 µM (inactive).

As for `O=C(OCc1c(-c2ccccc2)nn(-c2ccccc2)c1COC(=O)Oc1ccccc1)Oc1ccccc1`, the GI50 with NCI-H522, in the assay with NCI/ADR-RES, in the assay on HCC 2998, with KM12, with SN12C and in the assay with U-251 was > 100 µM (inactive) in each case. The GI50 in the assay on OVCAR-5, with CAKI-1, with SNB-75, in the assay on RXF 393, with TK-10 and with HT-29 was > 100 µM (inactive) in each case. Further, the GI50 in the assay with UACC-257, with SR, in the assay with COLO 205, in the assay with MOLT-4, with CCRF-CEM and in the assay with ACHN was > 100 µM (inactive) each time. In addition, the GI50 in the assay with OVCAR-4 and with SF-539 was > 100 µM (inactive) in each case.

For the compound `O=C1OC(c2ccccc2)=N/C1=C\c1ccc([N+](=O)[O-])cc1`, the GI50 was 9.57 µM (inactive) in the assay with NCI-H522; 8.97 µM (inactive) in the assay with NCI/ADR-RES; > 100 µM (inactive) in the assay on HCC 2998; 54.8 µM (inactive) in the assay with KM12; > 100 µM (inactive) with SN12C; 19.7 µM (inactive) in the assay on U-251. Further, the GI50 in the assay with OVCAR-5 was > 100 µM (inactive); with CAKI-1 it was 30.7 µM (inactive); in the assay on SNB-75, 22.9 µM (inactive); in the assay with RXF 393, 32.9 µM (inactive); in the assay on TK-10, 28.8 µM (inactive); in the assay with HT-29, > 100 µM (inactive). Besides, the GI50 was > 100 µM (inactive) with UACC-257; 2.35 µM (inactive) with SR; > 100 µM (inactive) in the assay with COLO 205; 15.1 µM (inactive) in the assay with MOLT-4; 13.8 µM (inactive) in the assay on CCRF-CEM; 14.3 µM (inactive) with ACHN. Moreover, the GI50 in the assay on OVCAR-4 was 34.5 µM (inactive); in the assay with SF-539, 9.16 µM (inactive).

As to `CCCCCOC(=O)c1cc2cc(CCl)ccc2oc1=O`, the GI50 is 0.213 µM (active) in the assay with NCI-H522; 17.3 µM (inactive) with NCI/ADR-RES; 14.9 µM (inactive) in the assay on HCC 2998; 13.6 µM (inactive) in the assay on KM12; 9.59 µM (inactive) with SN12C; 16.8 µM (inactive) in the assay on U-251. The GI50 in the assay on OVCAR-5 was 14.4 µM (inactive); in the assay on CAKI-1 it was 1.75 µM (inactive); in the assay with SNB-75 it was 8.22 µM (inactive); in the assay on RXF 393, 2.18 µM (inactive); in the assay with TK-10 it was 0.957 µM (active); in the assay with HT-29, 7.01 µM (inactive). Also, the GI50 in the assay on UACC-257 was 1.09 µM (active); in the assay with SR, 8.07 µM (inactive); in the assay with COLO 205, 2.36 µM (inactive); in the assay on MOLT-4, 7.33 µM (inactive); with CCRF-CEM, 13.1 µM (inactive); in the assay on ACHN it was 0.537 µM (active). Further, the values for the GI50 in the assay on OVCAR-4 and in the assay with SF-539 were 4.13 µM (inactive) and 27.6 µM (inactive), respectively.

On to `S=C1C(CCCOCc2ccccc2)C2CCCC23CC2(CCN13)OCCS2` (centres undefined), for which the GI50 in the assay with NCI-H522, in the assay on NCI/ADR-RES, in the assay with HCC 2998, in the assay with KM12, in the assay on SN12C and in the assay on U-251 was > 10 µM (inactive) throughout. In addition, the GI50 in the assay on OVCAR-5, in the assay with CAKI-1, with SNB-75, in the assay on RXF 393, in the assay on TK-10 and in the assay with HT-29 was > 10 µM (inactive) in each case. For the same compound, the GI50 in the assay with UACC-257, with SR, in the assay on COLO 205, in the assay with MOLT-4, in the assay on CCRF-CEM and in the assay on ACHN was > 10 µM (inactive) each time. Further, the GI50 with OVCAR-4 and with SF-539 was > 10 µM (inactive) each time.

In the case of `CCCCCC(O)C1C(=O)OC(C)C(O)/C=C/C=C/C=C/C=C\C=C(\C)C(O)CC(O)CC(O)CC(O)CC(O)CC(O)CC1O` (centres undefined), the GI50 in the assay on NCI-H522, with NCI/ADR-RES, in the assay with HCC 2998, in the assay on KM12, in the assay with SN12C and in the assay with U-251 was > 50 µM (inactive) throughout. Moreover, the GI50 in the assay on OVCAR-5, in the assay on CAKI-1, in the assay with SNB-75, in the assay on RXF 393, with TK-10 and in the assay on HT-29 was > 50 µM (inactive) in each case. Besides, the GI50 in the assay on UACC-257 was 34.6 µM (inactive); with SR it was > 50 µM (inactive); in the assay with COLO 205 it was > 50 µM (inactive); in the assay with MOLT-4, > 50 µM (inactive); in the assay with CCRF-CEM, > 50 µM (inactive); in the assay with ACHN, > 50 µM (inactive). The GI50 with OVCAR-4 was 11.1 µM (inactive); with SF-539, > 50 µM (inactive).
